Measured values: the supplement of paper PMC10307832

How the values were obtained:
Experiment in all cases: relative viability (nuclei count vs DMSO), 5 days (fraction); higher = more cells survive
[1] = compound: Cn1cncc1[C@@](N)(c1ccc(Cl)cc1)c1ccc2c(c1)c(-c1cccc(Cl)c1)cc(=O)n2C [Tipifarnib] + COc1cccc2cc(-c3nc([C@H]4CC[C@H](C(=O)O)CC4)n4ncnc(N)c34)[nH]c12 [OSI-027] (partner 0.5 µM)
How it was run: (§1)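 Lung cancer cell lines were seeded in 1536-well plates and dosed by pin tool the next day, with either a single drug or a fixed anchor-drug dose combined with five library-drug doses (not always all listed) spaced in √10 steps. Five days later, one step fixed the cells and stained their nuclei (final 0.05% Triton X-100, 1% formaldehyde, 1 ug/ml Hoechst), and nuclei were counted on 4× images. Relative viability is the nuclei count in treated wells divided by the count in vehicle wells, and each value is the median of duplicate plates.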

[2] = compound: Cn1cncc1[C@@](N)(c1ccc(Cl)cc1)c1ccc2c(c1)c(-c1cccc(Cl)c1)cc(=O)n2C [Tipifarnib] + CS(=O)(=O)CCNCc1ccc(-c2ccc3ncnc(Nc4ccc(OCc5cccc(F)c5)c(Cl)c4)c3c2)o1 [Lapatinib] (partner 2 µM)
How it was run: as §1

[3] = compound: Cn1cncc1[C@@](N)(c1ccc(Cl)cc1)c1ccc2c(c1)c(-c1cccc(Cl)c1)cc(=O)n2C [Tipifarnib] + C[C@]1(O)C[C@@H](c2nc(-c3ccc4ccc(-c5ccccc5)nc4c3)c3c(N)nccn32)C1 [Linsitinib] (partner 1 µM)
How it was run: as §1

[4] = compound: Cn1cncc1[C@@](N)(c1ccc(Cl)cc1)c1ccc2c(c1)c(-c1cccc(Cl)c1)cc(=O)n2C [Tipifarnib] + Cc1nc(NC(=O)N2CCC[C@H]2C(N)=O)sc1-c1ccnc(C(C)(C)C(F)(F)F)c1 [Alpelisib] (partner 2 µM)
How it was run: as §1

Cell Line	relative viability ([1]; first compound 0.01 µM)	relative viability ([1]; first compound 0.03162 µM)	relative viability ([1]; first compound 0.1 µM)	relative viability ([1]; first compound 0.3162 µM)	relative viability ([1]; first compound 1 µM)	relative viability ([2]; first compound 0.01 µM)	relative viability ([2]; first compound 0.03162 µM)	relative viability ([2]; first compound 0.1 µM)	relative viability ([2]; first compound 0.3162 µM)	relative viability ([2]; first compound 1 µM)	relative viability ([3]; first compound 0.01 µM)	relative viability ([3]; first compound 0.03162 µM)	relative viability ([3]; first compound 0.1 µM)	relative viability ([3]; first compound 0.3162 µM)	relative viability ([3]; first compound 1 µM)	relative viability ([4]; first compound 0.01 µM)	relative viability ([4]; first compound 0.03162 µM)	relative viability ([4]; first compound 0.1 µM)	relative viability ([4]; first compound 0.3162 µM)	relative viability ([4]; first compound 1 µM)
LXF-289	0.951	0.699	0.709	0.6	0.293	0.88	0.865	0.855	0.787	0.708	0.989	0.951	0.865	0.876	0.897	1.05	1.05	0.988	0.889	0.983
NCI-H23	0.583	0.384	0.342	0.29	0.26	1.4	0.949	0.717	0.439	0.23	0.747	0.573	0.44	0.331	0.39	0.717	0.791	0.517	0.454	0.372
NCI-H322M	0.5	0.492	0.513	0.415	0.445	0.637	0.662	0.622	0.688	0.505	0.934	0.921	0.96	0.672	0.853	0.765	0.816	0.767	0.741	0.658
NCI-H358	0.803	0.788	0.429	0.385	0.178	0.455	0.444	0.443	0.424	0.352	0.782	0.691	0.664	0.512	0.48	0.918	0.748	0.8	0.504	0.431
NCI-H460	0.669	0.626	0.257	0.209	0.0157	0.987	0.431	0.285	0.195	0.0315	0.841	0.639	0.173	0.146	0.0526	0.572	0.527	0.198	0.115	0.0453
NCI-H520	0.214	0.262	0.187	0.19	0.199	0.996	0.79	0.838	0.708	0.321	1.11	0.849	0.987	0.673	0.737	1.11	0.823	0.845	0.458	0.471
NCI-H596	0.725	0.627	0.606	0.398	0.506	0.99	1.09	1.04	0.868	0.608	1	1.03	0.854	0.934	0.844	0.516	0.547	0.0161	0.436	0.356
NCI-H647	0.409	0.585	0.438	0.299	0.101	1.17	0.792	0.693	0.668	0.176	1.35	1.04	0.649	0.557	0.609	1.05	0.822	0.838	0.44	0.488
NCI-H650	0.486	0.375	0.297	0.305	0.266	0.719	0.837	0.599	0.434	0.345	0.825	0.706	0.662	0.526	0.348	1.07	0.988	0.827	0.661	0.6
NCI-H661	0.696	0.601	0.439	0.33	0.339	0.636	0.56	0.375	0.424	0.397	0.754	0.616	0.502	0.511	0.438	0.648	0.901	0.399	0.598	0.446
NCI-H727	0.599	0.535	0.459	0.477	0.427	1.01	0.843	0.755	0.578	0.607	0.285	0.334	0.321	0.3	0.259	0.683	0.516	0.569	0.496	0.513
NCI-H838	0.357	0.339	0.23	0.231	0.184	0.965	0.952	0.644	0.615	0.393	0.955	0.826	0.684	0.628	0.6	1.02	0.777	0.712	0.553	0.659
NCI-H1355	0.37	0.344	0.295	0.262	0.26	0.999	0.871	0.746	0.67	0.516	0.861	0.896	0.649	0.541	0.69	0.874	0.804	0.678	0.518	0.599
NCI-H1395	0.622	0.545	0.494	0.517	0.413	1.03	0.85	0.82	0.68	0.48	1.43	1.14	0.888	0.869	0.783	0.92	1.03	0.894	0.693	0.6
NCI-H1437	0.823	0.728	0.488	0.446	0.33	0.873	0.864	0.738	0.727	0.248	1.15	0.993	1.04	0.816	0.698	1.02	1.02	0.931	0.76	0.688
NCI-H1563	0.725	0.777	0.721	0.641	0.62	1	0.956	1.02	0.891	0.879	1.13	1.13	1.13	1.03	1.14	0.991	0.867	0.862	0.893	0.757
